According to the supplement of paper PMC11061612:

Columns and labels:
Assay in all cases: combination Emax (second highest fraction inhibited in the dose matrix, 72 h); higher = more inhibition; extreme values may be limits of the assay
EW-1 (Ewing's Sarcoma) = test system: EW-1 (Ewing's Sarcoma)
In short: (§1)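 Cell lines grown in DMEM/F12 or RPMI with 10% FBS were plated in 1536-well plates and held 24 hours at 37°C, 5% CO2 before 72 hours of exposure to two-drug dose matrices, with DMSO typically at 0.2%. CellTiter-Glo 2.0 luminescence gave viability, which was converted to inhibition. Vehicle wells were set to 0 and blank wells to 1. Combination Emax is the second-highest inhibition in the matrix, and Bliss excess is the observed combination effect minus the expected EA + EB − EA·EB, where EA and EB are the single-agent effects.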

[1] = test system: HAL-01 (B-Lymphoblastic Leukemia)
In short: as §1

[2] = test system: Mo-T (Other Blood Carcinomas)
In short: as §1

SK-N-AS (Neuroblastoma) = test system: SK-N-AS (Neuroblastoma)
In short: as §1

SMILES | combination Emax (EW-1 (Ewing's Sarcoma)) | combination Emax [1] | combination Emax [2] | combination Emax (SK-N-AS (Neuroblastoma))
CCc1c2c(nc3ccc(O)cc13)-c1cc3c(c(=O)n1C2)COC(=O)[C@]3(O)CC [SN-38] + CN(C)CCCOc1ccc(-c2ccc3ncc4c(c3c2)n(C2CCOCC2)c(=O)n4C)cn1 [AZD0156] (first compound max 0.3 µM, 7x7, partner max 1 µM) | 0.982 | 1 | 0.673 | 0.737
CCN(CCO)CCCOc1ccc2c(Nc3cc(CC(=O)Nc4cccc(F)c4)[nH]n3)ncnc2c1 [AZD2811] + C=CCn1c(=O)c2cnc(Nc3ccc(N4CCN(C)CC4)cc3)nc2n1-c1cccc(C(C)(C)O)n1 [AZD1775] (first compound max 1 µM, partner max 1 µM) | 0.827 | 0.891 | 0.311 | 0.728
COc1nnc2ccc(N3CCC(c4ccc(OCCN5CCN(C)C(=O)[C@H]5C)cc4)CC3)nn12 [AZD5153] + Cn1cnc2c(F)c(Nc3ccc(Br)cc3Cl)c(C(=O)NOCCO)cc21 [Selumetinib] (first compound max 1 µM, 7x7, partner max 10 µM) | 0.618 | 0.849 | 0.659 | 0.663
CC(=O)c1c(C)c2cnc(Nc3ccc(N4CCNCC4)cn3)nc2n(C2CCCC2)c1=O [Palbociclib] + Cn1cnc2c(F)c(Nc3ccc(Br)cc3Cl)c(C(=O)NOCCO)cc21 [Selumetinib] (first compound max 10 µM, 7x7, partner max 10 µM) | 0.551 | 0.928 | 0.329 | 0.577
CN(C)CCCOc1ccc(-c2ccc3ncc4c(c3c2)n(C2CCOCC2)c(=O)n4C)cn1 [AZD0156] + C=CCn1c(=O)c2cnc(Nc3ccc(N4CCN(C)CC4)cc3)nc2n1-c1cccc(C(C)(C)O)n1 [AZD1775] (first compound max 1 µM, partner max 1 µM) | 0.886 | 0.917 | 0.402 | 0.77
CC1(C)CCC(CN2CCN(c3ccc(C(=O)NS(=O)(=O)c4ccc(NCC5CCOCC5)c([N+](=O)[O-])c4)c(Oc4cnc5[nH]ccc5c4)c3)CC2)=C(c2ccc(Cl)cc2)C1 [Venetoclax] + CCN(CCO)CCCOc1ccc2c(Nc3cc(CC(=O)Nc4cccc(F)c4)[nH]n3)ncnc2c1 [AZD2811] (first compound max 1 µM, 7x7, partner max 1 µM) | 0.365 | 0.959 | 0.611 | 0.434
CC(=O)c1c(C)c2cnc(Nc3ccc(N4CCNCC4)cn3)nc2n(C2CCCC2)c1=O [Palbociclib] + Cc1c2c(nn1C)CSCc1cc(n(C)n1)CSc1cc(c3ccccc3c1)OCCCc1c(C(=O)O)n(C)c3c-2c(Cl)ccc13 [AZD5991] (first compound max 10 µM, 7x7, partner max 1 µM) | 0.491 | 0.935 | 0.344 | 0.461
C[C@@H]1COCCN1c1cc(C2([S@](C)(=N)=O)CC2)nc(-c2ccnc3[nH]ccc23)n1 [AZD6738] + O=C(c1cc(Cc2n[nH]c(=O)c3ccccc23)ccc1F)N1CCN(C(=O)C2CC2)CC1 [Olaparib] (first compound max 10 µM, 7x7, partner max 10 µM) | 0.898 | 0.982 | 0.552 | 0.687
NC1(C(=O)N[C@@H](CCO)c2ccc(Cl)cc2)CCN(c2ncnc3[nH]ccc23)CC1 [Capivasertib] + COc1nnc2ccc(N3CCC(c4ccc(OCCN5CCN(C)C(=O)[C@H]5C)cc4)CC3)nn12 [AZD5153] (first compound max 10 µM, 7x7, partner max 1 µM) | 0.71 | 0.719 | 0.649 | 0.445
NC1(C(=O)N[C@@H](CCO)c2ccc(Cl)cc2)CCN(c2ncnc3[nH]ccc23)CC1 [Capivasertib] + Cn1cnc2c(F)c(Nc3ccc(Br)cc3Cl)c(C(=O)NOCCO)cc21 [Selumetinib] (first compound max 10 µM, 7x7, partner max 10 µM) | 0.437 | 0.554 | 0.41 | 0.515
COc1cccc2c1C(=O)c1c(O)c3c(c(O)c1C2=O)C[C@@](O)(C(=O)CO)C[C@@H]3O[C@H]1C[C@H](N)[C@H](O)[C@H](C)O1 [Doxorubicin] + Cc1cc2ncnn2cc1Nc1ncc2c(n1)n(C1CCOCC1)c(=O)n2C [AZD7648] (first compound max 1 µM, 7x7, partner max 10 µM) | 0.952 | 0.986 | 0.871 | 0.723
CN(CCO)CC[C@H](CSc1ccccc1)Nc1ccc(S(=O)(=O)NC(=O)c2ccc(N3CCC([C@@H](O)c4ccccc4-c4ccc(Cl)cc4)CC3)cc2)cc1S(=O)(=O)C(F)(F)F [AZD4320] + CN(C)CCCOc1ccc(-c2ccc3ncc4c(c3c2)n(C2CCOCC2)c(=O)n4C)cn1 [AZD0156] (first compound max 1 µM, 7x7, partner max 1 µM) | 0.705 | 0.853 | 0.483 | 0.109
Cn1cnc2c(F)c(Nc3ccc(Br)cc3Cl)c(C(=O)NOCCO)cc21 [Selumetinib] + CCN(CCO)CCCOc1ccc2c(Nc3cc(CC(=O)Nc4cccc(F)c4)[nH]n3)ncnc2c1 [AZD2811] (first compound max 10 µM, 7x7, partner max 1 µM) | 0.391 | 0.441 | 0.238 | 0.496
CCc1c2c(nc3ccc(O)cc13)-c1cc3c(c(=O)n1C2)COC(=O)[C@]3(O)CC [SN-38] + O=C(c1cc(Cc2n[nH]c(=O)c3ccccc23)ccc1F)N1CCN(C(=O)C2CC2)CC1 [Olaparib] (first compound max 0.3 µM, 7x7, partner max 10 µM) | 0.99 | 1 | 0.724 | 0.76
COc1nnc2ccc(N3CCC(c4ccc(OCCN5CCN(C)C(=O)[C@H]5C)cc4)CC3)nn12 [AZD5153] + C=CCn1c(=O)c2cnc(Nc3ccc(N4CCN(C)CC4)cc3)nc2n1-c1cccc(C(C)(C)O)n1 [AZD1775] (first compound max 1 µM, partner max 1 µM) | 0.883 | 0.88 | 0.729 | 0.669
COc1cccc(OCCCN)c1-c1cc(Nc2cnc(C#N)cn2)n[nH]1 [Prexasertib] + CCc1c2c(nc3ccc(O)cc13)-c1cc3c(c(=O)n1C2)COC(=O)[C@]3(O)CC [SN-38] (first compound max 1 µM, 7x7, partner max 0.3 µM) | 0.995 | 1 | 0.698 | 0.997
CC(=O)c1c(C)c2cnc(Nc3ccc(N4CCNCC4)cn3)nc2n(C2CCCC2)c1=O [Palbociclib] + CC1(C)CCC(CN2CCN(c3ccc(C(=O)NS(=O)(=O)c4ccc(NCC5CCOCC5)c([N+](=O)[O-])c4)c(Oc4cnc5[nH]ccc5c4)c3)CC2)=C(c2ccc(Cl)cc2)C1 [Venetoclax] (first compound max 10 µM, 7x7, partner max 1 µM) | 0.528 | 0.99 | 0.297 | 0.125
Cc1c2c(nn1C)CSCc1cc(n(C)n1)CSc1cc(c3ccccc3c1)OCCCc1c(C(=O)O)n(C)c3c-2c(Cl)ccc13 [AZD5991] + C1CN(CCC1(C(=O)N[C@@H](CCO)C2=CC=C(C=C2)Cl)N)C3=NC=NC4=C3C=CN4 [Capivasertib] (first compound max 1 µM, 7x7, partner max 3 µM) | 0.415 | 0.527 | 0.281 | 0.692
CC1(C)CCC(CN2CCN(c3ccc(C(=O)NS(=O)(=O)c4ccc(NCC5CCOCC5)c([N+](=O)[O-])c4)c(Oc4cnc5[nH]ccc5c4)c3)CC2)=C(c2ccc(Cl)cc2)C1 [Venetoclax] + C=CCn1c(=O)c2cnc(Nc3ccc(N4CCN(C)CC4)cc3)nc2n1-c1cccc(C(C)(C)O)n1 [AZD1775] (first compound max 1 µM, partner max 1 µM) | 0.947 | 1 | 0.629 | 0.953
NC1(C(=O)N[C@@H](CCO)c2ccc(Cl)cc2)CCN(c2ncnc3[nH]ccc23)CC1 [Capivasertib] + CCN(CCO)CCCOc1ccc2c(Nc3cc(CC(=O)Nc4cccc(F)c4)[nH]n3)ncnc2c1 [AZD2811] (first compound max 10 µM, 7x7, partner max 1 µM) | 0.568 | 0.464 | 0.321 | 0.329
CS(=O)(=O)CCNCc1ccc(-c2ccc3ncnc(Nc4ccc(OCc5cccc(F)c5)c(Cl)c4)c3c2)o1 [Lapatinib] + C[C@@H](Oc1cc(-c2cnn(C3CCNCC3)c2)cnc1N)c1c(Cl)ccc(F)c1Cl [Crizotinib] (first compound max 10 µM, 7x7, partner max 10 µM) | 0.966 | 0.955 | 0.88 | 0.359
CC1(C)CCC(CN2CCN(c3ccc(C(=O)NS(=O)(=O)c4ccc(NCC5CCOCC5)c([N+](=O)[O-])c4)c(Oc4cnc5[nH]ccc5c4)c3)CC2)=C(c2ccc(Cl)cc2)C1 [Venetoclax] + Cc1cc2ncnn2cc1Nc1ncc2c(n1)n(C1CCOCC1)c(=O)n2C [AZD7648] (first compound max 1 µM, 7x7, partner max 10 µM) | 0.418 | 0.881 | 0.616 | 0.295
CC1(C)CCC(CN2CCN(c3ccc(C(=O)NS(=O)(=O)c4ccc(NCC5CCOCC5)c([N+](=O)[O-])c4)c(Oc4cnc5[nH]ccc5c4)c3)CC2)=C(c2ccc(Cl)cc2)C1 [Venetoclax] + C1CN(CCC1(C(=O)N[C@@H](CCO)C2=CC=C(C=C2)Cl)N)C3=NC=NC4=C3C=CN4 [Capivasertib] (first compound max 1 µM, 7x7, partner max 3 µM) | 0.365 | 0.916 | 0.604 | 0.203
CC(=O)Nc1cccc(-n2c(=O)n(C3CC3)c(=O)c3c(Nc4ccc(I)cc4F)n(C)c(=O)c(C)c32)c1 [Trametinib] + Cc1nc(-c2cn3c(n2)-c2ccc(-c4cnn(C(C)(C)C(N)=O)c4)cc2OCC3)n(C(C)C)n1 [Taselisib] (first compound max 1 µM, 7x7, partner max 10 µM) | 0.761 | 0.687 | 0.524 | 0.73
NC1(C(=O)N[C@@H](CCO)c2ccc(Cl)cc2)CCN(c2ncnc3[nH]ccc23)CC1 [Capivasertib] + CC(=O)c1c(C)c2cnc(Nc3ccc(N4CCNCC4)cn3)nc2n(C2CCCC2)c1=O [Palbociclib] (first compound max 10 µM, 7x7, partner max 10 µM) | 0.608 | 0.69 | 0.4 | 0.351
Cc1c2c(nn1C)CSCc1cc(n(C)n1)CSc1cc(c3ccccc3c1)OCCCc1c(C(=O)O)n(C)c3c-2c(Cl)ccc13 [AZD5991] + CN(C)CCCOc1ccc(-c2ccc3ncc4c(c3c2)n(C2CCOCC2)c(=O)n4C)cn1 [AZD0156] (first compound max 1 µM, 7x7, partner max 1 µM) | 0.375 | 0.686 | 0.229 | 0.614
